# Measured values from patent publication US8828997B2, “2,3-dihydro-1H-imidazo(1,2-a)pyrimidin-5-one derivatives, preparation thereof, and pharmaceutical use thereof” (Sanofi, priority 2009, dated 2014).
# How the values were obtained:
# Type in all cases: cell-based
# [1] = system: AKT protein phosphorylated on serine 473 (pAKT-S473) in PC3 human prostate carcinoma cells; assay: pAKT expression in PC3 human prostate carcinoma cells measured by western blotting (test A); details: PC-3, 1 to 2 h incubation, absolute IC50
# Description: (§1) The inhibitory activity of the molecules on AKT phosphorylation is measured either by western blotting using the technique described below, or by the MSD Multi-spot Biomarker detection technique from Meso Scale Discovery also described below.
# Study of pAKT Expression in PC3 Human Prostate Carcinoma Cells Measured by Western Blotting (test A):
# This test is based on measuring the expression of the AKT protein phosphorylated on serine 473. The phosphorylation of AKT (pAKT) is measured by western blotting in the PC3 human prostate carcinoma line (ATCC CRL-1435), using an antibody that specifically recognises pAKT-S473.
# (§2) On day 1, the PC3 cells are seeded into 6-well plates (TPP, #92006) at the concentration of 0.8×10^6 cells/well in 1800 μl of DMEM medium (DMEM Gibco #11960-044) containing 10% of foetal calf serum (SVF Gibco, #10500-056) and 1% glutamine (L-Glu Gibco #25030-024), and incubated at 37° C., 5% CO2, overnight.
# (§3) On day 2, the cells are incubated in the presence or absence of the test products for 1 to 2 hours at 37° C. in the presence of 5% CO2. The molecules, diluted in dimethyl sulphoxide (DMSO Sigma #D2650), are added from a 10-times concentrated stock solution, the final percentage of DMSO being 0.1%. The molecules are tested either at a single concentration of less than or equal to 10 μM, or at increasing concentrations in a range that can extend from less than 1 nM to 10 μM.
# After this incubation, the cells are lysed for the preparation of the proteins. After the culture medium has been drawn off, the cells are rinsed with 1 ml of PBS (DPBS Gibco, #14190-094), recovered by scraping in 200 μl of complete HNTG buffer and transferred into a 96-well plate (Greiner #651201), and lysed for 1 h on ice. The HNTG buffer is composed of the following mixture: 50 mM hepes, 150 mM NaCl, 1% triton, 10% glycerol, with extemporaneous addition of one Mini Protease Inhibitor Cocktail tablet (Roche 1836153) and of one Phosphatase Inhibitor Cocktail tablet (Roche104906837001) per 10 ml of buffer.
# The lysate is centrifuged for 10 min at 6000 rpm. 155 μl of supernatant are recovered. 150 μl are incubated for denaturation for 5 min at 95° C. in the presence of 4× NuPAGE LDS Sample Buffer diluted 4-fold (InVitrogen ref NP0007) and of 10× NuPAGE Sample Reducing Agent diluted 10-fold (InVitrogen ref NP0009). These samples are then frozen at −20° C. 5 μl are assayed by the microBCA technique according to the technical bulletin of the MicroBCA Protein Assay Kit (Pierce #23235).
# For protein separation, 20 μg of proteins are loaded on to a NU-PAGE 4-12% Bis Tris Gel 12 well (InVitrogen ref NP0322BOX) and the migration is carried out for 1 h 30 in 20× NU-PAGE MOPS SDS Running Buffer diluted 20-fold (InVitrogen ref NP0001), at 150 volts.
# The gel is then transferred on to an Invitrolon PVDF membrane (Invitrogen #LC2007) permeabilised before and after a few seconds in ethanol (Ethanol Fischer Scientific #E/0600DF/15).
# The transfer is carried out in a Biorad tank at 30 volts overnight or at 60 volts for 3 hours, in the presence of 20× NUPAGE Transfer Buffer diluted 20-fold (InVitrogen ref NP0006).
# The membrane is then saturated in saturating solution composed of TBS (10× Tris Buffered Saline, Sigma #T5912, diluted 10-fold), 0.1% Tween 20 (Sigma #P5927) and 3% BSA (Bovine Albumin Serum Fraction V, Sigma #A4503) for 6 h after overnight transfer or else for 1 h after transfer for a period of 3 h.
# The primary antibodies are diluted to 1/1000 for the anti-phospho AKT-Ser473 antibody (1931-12, rabbit monoclonal, cat#4058 from Cell Signaling Technology Abcam), in saturating solution composed of PBS, 0.1% Tween 20 and 3% BSA, and then shaken overnight at 4° C.
# Two rinses for 5 min in washing solution composed of TBS and 0.1% Tween 20 are carried out before hybridisation of the secondary antibodies. […]
# [2] = system: translocation of the LC3 protein in Hela GFP-LC3 cells; assay: Translocation of the LC3 protein in Hela human cells measured by image analysis cytometry (test C, autophagy); details: Homo sapiens, HeLa, 2 h, EBSS + 10 μM hydroxychloroquine, cells with LC3 granulations, absolute IC50
# Description: Inhibitory activity of the molecules on autophagy is measured by means of the translocation of the LC3 protein from the cytoplasm to the autophagosomes. For this, Hela cells were transfected with a vector encoding the chimeric protein GFP-LC3. A Hela clone stably expressing the GFP-LC3 protein was selected.
# Study of the Translocation of the LC3 Protein in Hela Human Cells, Measured by Image Analysis Cytometry (Test C):
# as §2, with “Hela GFP-LC3” for “PC3”, “96-well” for “6-well”, “coated with poly-D-lysine (Greiner, #655946)” for “(TPP, #92006)”, “15000” for “0.8×10^6”, “200” for “1800”, “(FCS” for “(SVF”
# On day 2, the cells are washed twice with EBSS (Sigma #E3024). The cells are then incubated in EBSS, 10 μM hydroxychloroquine and test products, for 2 hours at 37° C. in the presence of 5% CO2. The molecules are diluted in dimethyl sulphoxide (DMSO Sigma #D2650), the final DMSO percentage being 0.1%. The molecules are tested at increasing concentrations in a range that can extend from 10 nM to 1 μM.
# After this incubation, the cells are fixed with 4% paraformaldehyde (Sigma #HT501128 4L) for 10 min. The cells are then washed twice with PBS and the nuclei then stained with 2 μg/ml of Hoechst 33342 (Invitrogen #H3570). The 96-well plates are then read with the iCyte image analysis cytometer (Compucyte).
# The activity of the product is translated to IC50, obtained from a dose-response curve of various concentrations tested and representing the dose giving 50% specific inhibition (absolute IC50). 2 independent experiments make it possible to calculate the mean of the IC50 values.
# [3] = system: P. falciparum (highly chloroquine-resistant strain Fcm29-Cameroon); assay: Antimalarial activity test (radioactive micromethod of Desjardins, tritiated hypoxanthine incorporation); details: Plasmodium falciparum, Erythrocyte, infected human erythrocytes, 48 h
# Description: Antimalarial Activity Test
# The antimalarial activity tests are carried out according to the radioactive micromethod of Desjardins (R. E. Desjardins, C. J. Canfield, J. D. Haynes, J. D. Chulay, Antimicrob. Agents Chemother., 1979, 16, 710-718). The assays are carried out in 96-well microplates (Test Plates Ref. 92696, Techno Plastic Products Ag, Zollstrasse 155, CH-8219 Trasadingen). The P. falciparum strains are cultured in solutions of RPMI 1640 supplemented with 5% of human serum with a haematocrit at 2% and a blood parasite concentration at 1.5%. For each assay, the parasites are incubated with selected concentrations of drugs for 48 h at 37° C. in a humid atmosphere and at 5% CO2. Artemisinin, artesunate and also chloroquine diphosphate are used as reference molecules. The first dilution of the drug is prepared at 1 mg/ml in dimethyl sulphoxide. The range of dilutions of the successive daughter solutions is also prepared in dimethyl sulphoxide. Each daughter dilution is subsequently diluted to 1/50 in RPMI 1640 supplemented with 5% of human serum, all the dilutions being carried out at 37° C. These dilutions are then added to the parasites in culture in the microplates. After addition of the drug, the parasites are in culture in RPMI 1640 containing 5% of human serum and 1% of dimethyl sulphoxide. The parasite growth is measured by incorporation of tritiated hypoxanthine (added 24 h after the beginning of the exposure to the drug) compared with the incorporation in the absence of drug.
# The activity of the product is translated to % inhibition of the growth of P. falciparum (highly chloroquine-resistant strain Fcm29-Cameroon) at 1 μM and 0.1 μM in an in vitro test using infected human erythrocytes.
# [4] = system: AKT protein phosphorylated on serine 473 (P-AKT-S473) in PC3 human prostate carcinoma cells; assay: pAKT expression in PC3 human prostate carcinoma cells measured by MSD Multi-spot Biomarker detection (test B); details: Homo sapiens, PC-3, P-AKT-S473, PC3 cells, MSD sandwich immunoassay, 1 to 2 h incubation, absolute IC50
# Description: as §1
# Study of pAKT Expression in PC3 Human Prostate Carcinoma Cells Measured by the MSD Multi-Spot Biomarker Detection Technique from Meso Scale Discovery (Test B):
# This test is based on measuring the expression of the AKT protein phosphorylated on serine 473 (P-AKT-S473), in the PC3 human prostate carcinoma line, by means of the technique based on a sandwich immunoassay using the MSD Multi-spot Biomarker Detection kit from Meso Scale Discovery: phospho-Akt (Ser473) whole cell lysate kit (#K151CAD) or phospho-Akt (Ser473)/Total Akt whole cell lysate kit (#K151OOD). The primary antibody specific for P-AKT-S473 (Kit #K151CAD) is coated onto an electrode in each well of the 96-well plates of the MSD kit: after the addition of a protein lysate to each well, the signal is visualised by adding a secondary detection antibody labelled with an electrochemoluminescent compound. The procedure followed is that described in the kit.
# as §2, with “96-well” for “6-well”, “#92096)” for “#92006)”, “35 000” for “0.8×10^6”, “200” for “1800”, “(FCS” for “(SVF”
# as §3, with “h” for “hours”, “5% of” for “5%”, “20-times” for “10-times”
# After this incubation, the cells are lysed for the preparation of the proteins. For this, after the culture medium has been drawn off, 50 μl of complete Tris Lysis Buffer of the MSD kit containing the protease and phosphatase inhibitor solutions are added to the wells and the cells are lysed for 1 h at 4° C. with shaking. At this stage, the plates containing the lysates can be stored at −20° C. or at −80° C.
# The wells of the 96-well plates of the MSD kit are saturated for 1 h at ambient temperature with the blocking solution of the MSD kit. Four washes are carried out with 150 μl of Tris Wash Buffer of the MSD kit. The lysates previously prepared are transferred into the 96-well multi-spot plates of the MSD kit and incubated for 1 h at ambient temperature, with shaking. Four washes are carried out with 150 μl of Tris Wash Buffer of the MSD kit. 25 μl of the MSD sulfo-tag detection antibody solution are added to the wells and incubated for 1 h at ambient temperature, with shaking. Four washes are carried out with 150 μl of Tris Wash Buffer of the MSD kit. 150 μl of Read Buffer of the MSD kit are added to the wells and the plates are read immediately on the S12400 instrument from Meso Scale Discovery.
# The instrument measures a signal for each well. Wells without cells and containing the lysis buffer serve to determine the background noise that will be subtracted from all the measurements (min). The wells containing cells in the absence of product and in the presence of 0.1% DMSO are considered to be the 100% signal (max). The percentage inhibition is calculated for each concentration of test product according to the following formula: (1-((test−min)/(max−min)))×100.
# The activity of the product is translated to IC50, obtained from a dose-response curve of the various concentrations tested and representing the dose giving 50% specific inhibition (absolute IC50). 2 independent experiments make it possible to calculate the mean of the IC50 values.
SMILES,IC50 [1] [nM],IC50 [2] [nM],inhibition at 0.1 µM ([3]; 0.1 μM) [%],inhibition at 1 µM [3] [%],IC50 [4] [nM]
"CC(c1ccccc1)N1c2nc(N3CCOCC3)cc(=O)n2C[C@@]1(C)C(F)(F)F (mixture of isomers) [Example 16, (2S)-2-Methyl-7-(morpholin-4-yl)-1-((R) and (5)-1-phenylethyl)-2-(trifluoromethyl)-2,3-dihydroimidazo[1,2-a]pyrimidin-5(1H)-one]",79,,,,
"COc1ccc(CCN2c3nc(N4CCOCC4)cc(=O)n3CC2(C)C(F)(F)F)cc1 (racemic) [Example 2, (R,S)-1-[2-(4-methoxyphenyl)ethyl]-2-methyl-7-(morpholin-4-yl)-2-(trifluoromethyl)-2,3-dihydroimidazo[1,2-a]pyrimidin-5(1H)-one]",324,145,,,
"CCC(c1ccccc1)N1c2nc(N3CCOCC3)cc(=O)n2C[C@@]1(C)C(F)(F)F (single isomer, unassigned) [Example 14, (S)-2-Methyl-7-morpholin-4-yl-1-((S) or (R)-1-phenylpropyl)-2-trifluoromethyl-2,3-dihydro-1H-imidazo[1,2-a]pyrimidin-5-one]",174,,,,
"C[C@@]1(C(F)(F)F)Cn2c(nc(N3CCOCC3)cc2=O)N1CCc1ccc(Cl)cc1 [Example 28, (2S)-1-[2-(4-Chlorophenyl)ethyl]-2-methyl-7-(morpholin-4-yl)-2-(trifluoromethyl)-2,3-dihydroimidazo[1,2-a]pyrimidin-5(1H)-one]",,198,14,53,10
"C[C@@]1(C(F)(F)F)Cn2c(nc(N3CCOCC3)cc2=O)N1CCc1cccc(Cl)c1 [Example 29, (2S)-1-[2-(3-Chlorophenyl)ethyl]-2-methyl-7-(morpholin-4-yl)-2-(trifluoromethyl)-2,3-dihydroimidazo[1,2-a]pyrimidin-5(1H)-one]",,261,,52,6
